Legend:
SP1 = assay: quantitative real-time reverse transcription PCR; format: cell-based, human; details: MCF7 and MDA-MB-231 cells; 250 ppm CO
Procedure: (§1) mRNA was isolated from cells (MCF7/TGL and MDA-MB-231/TGL) grown on 6-cm dishes using RNeasy mini kit (Qiagen, Hilden, Germany) containing gDNA Eliminator spin columns. cDNA was generated using the SuperScript III First-strand synthesis system with random hexamers (Invitrogen, Carlsbad, CA), and power SYBR green (Invitrogen, Carlsbad, CA)-based quantitative real-time PCR was performed using primer specific for HRG1 (human, forward: 5′- […] -3′ (SEQ ID NO: 1), reverse: 5′- […] -3′ (SEQ ID NO: 2)) or HCP1 (human forward: 5′- […] -3′ (SEQ ID NO: 3), reverse: 5′-[…] -3′ (SEQ ID NO: 4)), CYP1B1 (human, forward: 5′TGAGTGCCGTGTGTTTCGG -3′ (SEQ ID NO: 5), reverse: 5′-[…] -3′ (SEQ ID NO: 6)), SP1 (human, forward: 5′-GTGGCCGCTACCTTCACTG -3′ (SEQ ID NO: 7), reverse: 5′-GCCCCACTCCTACTTGGTC -3′ (SEQ ID NO: 8)) with the comparative CT method (ΔΔCT; ABI).
(§2) Heme is known to stimulate synthesis of many hemoproteins. Accordingly, hemoproteins whose expression was differentially regulated by low-dose CO in MCF7 and MDA-MB-231 cell lines were screened. CYP1B1, a heme-regulated protein, was identified as a top candidate in the list because of its following properties. First, CYP1B1 has been reported to induce the expression of SP1 transcription factor, and Sp1 interacts with Myc for synergistic transcriptional regulation for Myc target genes. […]

CYP1B1 = assay: quantitative real-time reverse transcription PCR; format: cell-based, human; details: MCF7 and MDA-MB-231 cells; 250 ppm CO
Procedure: as §1, §2

MDA-MB-231/TGL cells = assay: experimental tail vein lung metastasis assay, human breast cancer xenograft; format: in vivo, NSG mice
Procedure: NSG mice were generated by the Jackson Laboratory. All mice were housed in accordance with the institutional guidelines. All procedures involving mice were approved by the institutional animal care and use committee of Weill Cornell Medicine. 1 × 10^5 or 5 × 10^4 MDA-MB-231/TGL cells in 150 µl PBS were injected into the tail veins of female NSG mice at the age of 7-8 weeks (n=5/group for 1× 10^5 cells and n = 6/group for 5 × 10^4 cells). 1× 10^4 8988T/TGL cells in 100 µl PBS were injected into spleen of NSG mice at age of 7-8 weeks (n=4/group, male and female) to observe the liver metastasis (G. Zhang, & Y. N. Du, Methods Mol Biol 1882, 309-320 (2019)). The spleen was removed after the injection. Starting one day after injection, mice were randomized into two groups. One group was kept in a regular mouse holding room (control), and the other group was put into a chamber delivering 250 ppm CO 3 hours daily. Mice were subjected to bioluminescent imaging using the In Vivo Imaging System Spectrum (PerkinElmer, Waltham, MA) at 0, 1, 3 days and then weekly after tumor cells were injected until the final time points, as described previously by Y. C. Du, D. S. Klimstra, & H. Varmus, PLoS One 4, e6932 (2009)). Luciferase signals were transformed to nature log scale before analysis. GEE method was used to test the overall difference of tumor growth over time. All analyses were performed in statistical software SAS Version 9.4 (SAS Institute, Cary, NC).
Mouse tissues were removed and fixed in 10% buffered formalin overnight at room temperature. Formalin-fixed/paraffin-embedded sections (5-µm) were deparaffinized and rehydrated by passage through a graded xylene/ethanol series before staining. Immunochemistry was performed using the VECTASTAIN Elite ABC kit following the manufacturer’s instructions. Tumor number and tumor size were quantified by scanning the whole tissue slide of each mouse under microscope. The size of tumor area of each tumor was measured by the cellSens imaging software (Olympus, Tokyo, Japan). Total tumor area of each mouse or total tumor number of each mouse was plotted. The primary antibodies used were cleaved caspase 3 (1:333; Cell Signaling Tech (Cat. No. 9661), Danvers, MA) and Ki67 (1:1000, Vector Labs (Cat. No. VP-K451), Burlingame, CA).
To determine whether 250 ppm CO inhibits cancer metastasis in vivo, an experimental tail vein metastasis assay with TNBC MDA-MB-231 cell line was performed. 0.1 million MDA-MB-231/TGL (luciferase reporter) cells were injected into the tail vein of the NOD/scid-lL2Rgc knockout (NSG) immunodeficient mice. Mice were randomly divided in to two groups after injection. […]

**Q.** Which “SP1 mRNA levels” value (SP1) does the source give for `[C-]#[O+]` [CO, Carbon monoxide] here?
**A.** significantly reduced

**Q.** What about the “CYP1B1 mRNA levels” value (CYP1B1) of the same compound?
**A.** significantly reduced

**Q.** What about the “metastatic tumor burden in lung sections (histological analysis)” value (MDA-MB-231/TGL cells; 0.1 million MDA-MB-231/TGL cells tail vein, NSG mice, 250 ppm CO gas 3 hours daily, 23-day time point, vs control) of the same compound?
**A.** significantly lower

**Q.** What about the “appearance / signs of sickness of the mice” value (MDA-MB-231/TGL cells; 0.1 million MDA-MB-231/TGL cells tail vein, 250 ppm CO 3 hours daily, control group lethargic after 23 days) of the same compound?
**A.** looked healthy and had no signs of sickness

**Q.** What about the “metastatic tumor burden in lung sections (histological analysis)” value (MDA-MB-231/TGL cells; 5 × 10^4 MDA-MB-231/TGL cells tail vein, 250 ppm CO 3 hours daily, 7 days/week, 25 days after the injection) of the same compound?
**A.** significantly lower

**Q.** What about the “bioluminescent signals (whole mice) over time” value (MDA-MB-231/TGL cells; 5 × 10^4 MDA-MB-231/TGL cells tail vein, 250 ppm CO 3 hours daily, 7 days/week, imaging to 3 weeks, P = 0.0016, GEE method) of the same compound?
**A.** significantly lower

Source: patent publication US20230346831A1, “METHODS FOR TREATING […] USING LOW DOSE CARBON MONOXIDE” (priority 2020, published 2023)
